# Results published in patent publication EP0069448A1, “Fungicidal amide derivatives” (IMPERIAL CHEMICAL INDUSTRIES PLC, priority 1981, dated 1983).
# Tests used:
# Type in all cases: in vivo
# [1] = system: Candida albicans and Trichophyton mentagrophytes var. quinkeanum; assay: Oral antifungal test in oestradiol-treated female mice inoculated vaginally and on the back; settings: 168 h, oral dosing twice on day 0 and once daily on days 1-4, skin lesions scored and vaginal samples cultured on day 7, read-out: minimum effective dose (MED)
# Description: The following Monday (day 0) they are clipped on the back and then dosed orally with test compounds. They are then inoculated with Candida albicans in the vagina and Trichophyton mentagrophytes var. quinkeanum on the back, and then given a second dose of the same compound. Dosing is repeated once daily on days 1-4. On day 7 skin lesions are scored visually and vaginal samples taken for culture on agar. Groups of 5 mice are used and compounds are dosed initially at a level of 250mg./kg. The dose is then reduced sequentially until a minimum effective dose (MED) is found. The MED for 2,2-bis(4-chlorophenyl)-3-(1,2,4-triazol-1-yl)propionamide in this test was 5mg. per kg.
# [2] = system: ERYSIPHE GRAMINIS (BARLEY); assay: Foliar fungal disease test on plants (spray and root drench); settings: 100 ppm active ingredient spray, root drench approximately 40 ppm a.i./dry soil; plants inoculated 24 hours before treatment
# Description: (§1) The compound of Example 1 was tested against a variety of foliar fungal diseases of plants. The technique employed was as follows:- The plants were grown in John Innes Potting Compost (No. 1 or 2) in 4 cm diameter minipots. A layer of fine sand was placed at the bottom of the pots containing the dicotyledonous plants to facilitate uptake of test compound by the roots. The test compound was formulated either by bead milling with aqueous Dispersol T or as a solution of acetone or acetone/ethanol which was diluted to the required concentration immediately before use. For the foliage diseases, suspensions (100 ppm active ingredient) were sprayed on to the […]. Exceptions to this were the tests on Botrytis cinerea, Plasmopara viticola and venturia inaequalis. The sprays were applied to maximum retention and the root drenches to a final concentration equivalent to approximately 40 ppm a.i./dry soil. Tween 20, to give a final concentration of 0.05%, was added when the sprays were applied to cereals. For most of the tests the compound was applied to the soil (roots) and the foliage (by spraying) one or two days before the plant was inoculated with the diseases. An exception was the test on Erysiphe graminis in which the plants were inoculated 24 hours before treatment. After inoculation, the plants were put into an appropriate environment to allow infection to take place and The disease control was recorded by the following grading:- [table]
# [3] = system: PUCCINIA RECONDITA (WHEAT); assay: as above; settings: 100 ppm active ingredient spray, root drench approximately 40 ppm a.i./dry soil; applied one or two days before inoculation
# Description: as §1
# [4] = system: VENTURIA INAEQUALIS (APPLE); assay: as above; settings: 100 ppm active ingredient; Venturia inaequalis named as an exception to the combined spray and soil application; applied one or two days before inoculation
# Description: as §1
# [5] = system: CERCOSPORA ARACHIDICOLA (PEANUT); assay: as above; settings: 100 ppm active ingredient spray, root drench approximately 40 ppm a.i./dry soil; applied one or two days before inoculation
# Description: as §1
structure (smiles),measurement,setting,value
"NC(=O)C(Cn1cncn1)(c1ccc(Cl)cc1)c1ccc(Cl)cc1 [Example 1, 2,2-bis(4-chlorophenyl)-3-(1,2,4-triazol-1-yl)propionamide]",minimal effective dose,[1],5 mg/kg
same,"disease control grading, ERYSIPHE GRAMINIS (BARLEY)",[2],4
same,"disease control grading, PUCCINIA RECONDITA (WHEAT)",[3],1
same,"disease control grading, VENTURIA INAEQUALIS (APPLE)",[4],3
same,"disease control grading, CERCOSPORA ARACHIDICOLA (PEANUT)",[5],2
